US20260109951A1, “METHODS AND COMPOSITIONS FOR INDUCING HEMATOPOIETIC CELL DIFFERENTIATION” (FATE THERAPEUTICS, INC., priority 2022, published 2026)

Columns and labels:
iPSC-derived NK cells = assay: iNK expansion by co-culture with IL21 and 41BBL expressing irK562 feeder cells; type: cell-based, human; conditions: about 3 μM added at day 2 of about 7 day expansion, versus without AhR inhibitor, FIG. 14
Text: To modulate effector cell activation during the cell expansion stage of iPSC differentiation, an AhR (aryl hydrocarbon receptor) inhibitor was discovered to improve effector cell function, including anti-tumor efficacy. iPSCs were differentiated into definitive HE cells as previously described, and were subsequently differentiated into pre-expansion NK cells, at which point they were expanded by co-culture with IL21 and 41BBL expressed by irK562 feeder cells for about 7 days. An exemplary AhR inhibitor, CH-223191 (among others such as UM729, UM171, SR1), was added to the expansion culture at day 2 with a final concentration of about 3 μM to potentiate expansion signals.

tumor = assay: anti-tumor efficacy of treated, cryopreserved iNK cells; type: cell-based; conditions: treated and cryopreserved cells versus untreated or control cells, FIG. 15
Text: Cells that have been treated with CH-223191 were cryopreserved in liquid nitrogen long term. To assess recovery of the cells from cryopreservation, the cells were thawed and cultured in B0 medium for a period of 7 days and cell counts taken during the course of this culture. […] Further, cells that have been treated with CH-223191 and cryopreserved in liquid nitrogen were further assessed for function in vitro and in vivo.

[1] = test system: hiPSC-derived CD34+ HE cells; assay: hiPSC monolayer differentiation to definitive HE, flow cytometric analysis of D10 cells; type: cell-based, human
Procedure: To initiate differentiation towards the hematopoietic lineage, hiPSCs were seeded as a monolayer on Day (D) 0 in the maintenance medium and allowed to adhere and expand for about 24 hours. The monolayers were maintained until around D5-D6 at which point they were dissociated into single cells and seeded as a low-density monolayer until differentiation at around D10. The D10 dissociated single cell population was sorted by FACS for further analysis and marker profiling for definitive HE characterization. Alternatively, or in addition thereto, as disclosed herein, one or more of anti-CD82, anti-CD34, and anti-CD43 antibodies were used for cell sorting the D10 cell population to obtain definitive HE cells comprising a phenotype of CD82^+, CD34^+CD82^+ or CD34^+CD43^−CD82^+, which were optionally cryopreserved in cryopreservation medium or continued with effector cell differentiation.
The flow cytometric analysis of D10 cells differentiated under control conditions was compared to cells differentiated under cytokine conditions that includes BMP4. RUNX1 is a transcription factor expressed in the cell and believed to be mostly associated with HE identity. The cells were gated on single/live events. The […] cells and the […] cells were then stained with anti-human antibodies and analyzed by LEGENDScreen™. […]

TNF-α production = conditions: previously shown; cited from earlier work

Cc1ccccc1N=Nc1ccc(NC(=O)c2ccnn2C)c(C)c1 [CH-223191]
fold expansion and yield of differentiated NK cells (iPSC-derived NK cells): greater fold expansion and yield of differentiated NK cells | anti-tumor efficacy (tumor): enhanced anti-tumor efficacy at endpoint

Fc1ccc(-c2nc(C3CCNCC3)sc2-c2ccnc(NC3CC3)n2)cc1 [DBM1285, cyclopropyl-{4-[4-(4-fluorophenyl)-2-piperidin-4-yl-thiazol-5-yl]pyrimidin-2-yl}amine]
maintenance of CD82 expression (CD82+RUNX1+ subpopulation of CD34+ HE cells) ([1]; p38 MAPK inhibitor added to composition for obtaining definitive HE cells from iPSC): beneficial to maintain CD82 expression | TNF-α production (TNF-α production): inhibit TNF-α production

B1: BMP4: bone morphogenetic protein, cytokine, BMP activator (protein, UniProt P12644 293-408, looked up)
Bone morphogenetic protein 4: SPKHHSQRARKKNKNCRRHSLYVDFSDVGWNDWIVAPPGYQAFYCHGDCPFPLADHLNSTNHAIVQTLVNSVNSSIPKACCVPTELSAISMLYLDEYDKVVLKNYQEMVVEGCGCR
specification of RUNX1+ HE ([1]; D10 cells, cytokine conditions including BMP4 versus control conditions, FIG. 1): specification of RUNX1^+ HE is cytokine driven
